# Reference: US12059398B2, “Compositions of 1,3-butanediol and beta-hydroxybutyric acid to provide optimal therapeutic ketosis” (Health Via Modern Nutrition Inc., priority 2022, dated 2024)
# Columns and labels:
# [1] = tested on: potassium channels and nitric oxide synthase; settings: cited from earlier work
# [2] = Blood D-BHB pharmacokinetics comparison of ketogenic nutritional compositions after ingestion; format: in vivo; settings: for Blood D-BHB: dose 0.5 g (total BDO or BHB)/bodyweight kg, ingestion
# Procedure: FIG. 1 is a graph showing the blood D-BHB pharmacokinetics for eight ketogenic compositions, reporting blood D-BHB mM over a time period of six hours following ingestion of the ketogenic compositions.
# The blood D-BHB pharmacokinetics produced by different ketogenic nutritional compositions were evaluated and compared. The nutritional compositions include: 100% R-BDO; 90 wt. % R-BDO+10 wt. % D-BHB (acid/salt); 85 wt. % R-BDO+15 wt. % D-BHB (acid/salt); 80 wt. % R-BDO+20 wt. % D-BHB (acid/salt); 75 wt. % R-BDO+25 wt. % D-BHB (acid/salt); 70 wt. % BDO+30 wt. % D-BHB; 60 wt. % BDO+40 wt. % D-BHB; and 50% BDO+50% D-BHB via R-1,3 BDO−D-BHB monoester. The compositions were administered at a dose of 0.5 g (total BDO or BHB excluding mineral or base pairs)/bodyweight kg.
# The nutritional compositions include: 100% R-BDO; 90 wt. % R-BDO+10 wt. % D-BHB (acid/salt); 85 wt. % R-BDO+15 wt. % D-BHB (acid/salt); 80 wt. % R-BDO+20 wt. % D-BHB (acid/salt); 75 wt. % R-BDO+25 wt. % D-BHB (acid/salt); 70 wt. % BDO+30 wt. % D-BHB; 60 wt. % BDO+40 wt. % D-BHB; and 50% BDO+50% D-BHB via R-1,3 BDO−D-BHB monoester.
# By integrating over time rather than looking at individual concentration measurements, a more accurate estimate of the overall exposure to the drug is obtained.
# [3] = dose 0.5 g/bodyweight kg, six hours following ingestion
Compound,Effect on age-associated endothelial-dependent and -independent dysfunction ([1]; not associated with increased blood BHB concentration),Direct vasodilator mechanism ([1]; through activation of potassium channels and nitric oxide synthase),Blood D-BHB ([2]; 0 minutes) [mM],Blood D-BHB ([2]; 60 minutes) [mM],Blood D-BHB ([2]; 120 minutes) [mM],Blood D-BHB ([2]; 180 minutes) [mM],Blood D-BHB ([2]; 240 minutes) [mM],Blood D-BHB ([2]; 300 minutes) [mM],Blood D-BHB ([2]; 360 minutes) [mM],"Duration of Blood D-BHB Concentrations between 1 mM and 2.5 mM [2, 3] [min]","Total AUC mM × minutes in optimal therapeutic ketosis range of 1-2.5 mM [2, 3] [mM·min]"
"C[C@@H](O)CCO [100% R-1,3-BDO (natural), R-1,3-butanediol]",sufficient to reverse age-associated endothelial-dependent and -independent dysfunction,predominantly an endothelium-dependent vasodilator,–,–,–,–,–,–,–,–,–
"R-1,3 BDO−D-BHB monoester",–,–,0.3,4.3,1.9,1.3,0.5,0.3,0.2,158,98.3
